Measurements published in PMC11062922 (Nature Chemical Biology, 2023).
Like-named read-outs stand apart in the source and are kept apart here.

Key:
ABL1 = ABL1 (Homo sapiens, UniProt P00519); experiment: Kinobeads two-dose competition binding: ABL1; conditions: sheet CATDS matrix 2; Gene Name ABL1
ACOX1 = molecular target: T1, ACOX1 (Homo sapiens, UniProt Q15067); experiment: Kinobeads two-dose competition binding: ACOX1; conditions: sheet CATDS matrix 2; Gene Name ACOX1;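 note: competition of compounds with immobilized broad-spectrum kinase inhibitor beads in cell lysate at 100 and 1,000 nM, 45 min at 4 °C, bead-bound protein quantified by label-free MS versus DMSO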
T1 construct: endogenous in cells
T1 sequence (Q15067 1-660): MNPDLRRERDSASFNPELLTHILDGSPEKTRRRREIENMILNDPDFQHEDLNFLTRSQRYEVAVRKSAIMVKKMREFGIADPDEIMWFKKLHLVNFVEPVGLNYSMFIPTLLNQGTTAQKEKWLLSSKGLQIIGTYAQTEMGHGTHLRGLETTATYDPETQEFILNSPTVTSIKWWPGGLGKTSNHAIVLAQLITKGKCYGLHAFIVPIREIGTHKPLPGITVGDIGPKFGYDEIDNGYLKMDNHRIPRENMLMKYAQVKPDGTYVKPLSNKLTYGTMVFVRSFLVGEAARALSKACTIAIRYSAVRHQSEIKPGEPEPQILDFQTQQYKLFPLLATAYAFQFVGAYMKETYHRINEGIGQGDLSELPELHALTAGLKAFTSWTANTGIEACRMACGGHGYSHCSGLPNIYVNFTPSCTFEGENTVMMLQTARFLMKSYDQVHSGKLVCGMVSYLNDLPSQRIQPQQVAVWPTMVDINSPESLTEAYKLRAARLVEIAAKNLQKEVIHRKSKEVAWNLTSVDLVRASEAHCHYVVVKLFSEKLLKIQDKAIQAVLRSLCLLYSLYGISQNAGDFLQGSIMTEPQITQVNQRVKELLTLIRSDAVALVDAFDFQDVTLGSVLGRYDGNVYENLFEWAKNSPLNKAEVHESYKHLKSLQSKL

AAK1 = molecular target: T2, AAK1 (Homo sapiens, UniProt Q2M2I8); experiment: Kinobeads two-dose competition binding: AAK1; conditions: for CATDS: sheet CATDS matrix 2, Gene Name AAK1; for potency estimated from few doses: read-out: Kinobeads Drugmatrix - all: apparent Kd, AAK1;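 for all read-outs here: kinobeads competition pulldown from cell lysate, compound preincubated 45 min at 4 °C, bead-bound protein measured by label-free mass spectrometry against DMSO vehicle control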
T2 construct: to maximize the representation of endogenous proteins; endogenous in cells

ACAD11 = molecular target: T3, ACAD11 (Homo sapiens, UniProt Q709F0); experiment: Kinobeads two-dose competition binding: ACAD11; conditions: sheet CATDS matrix 2; Gene Name ACAD11
T3 construct: endogenous in cells
T3 sequence (Q709F0 1-780): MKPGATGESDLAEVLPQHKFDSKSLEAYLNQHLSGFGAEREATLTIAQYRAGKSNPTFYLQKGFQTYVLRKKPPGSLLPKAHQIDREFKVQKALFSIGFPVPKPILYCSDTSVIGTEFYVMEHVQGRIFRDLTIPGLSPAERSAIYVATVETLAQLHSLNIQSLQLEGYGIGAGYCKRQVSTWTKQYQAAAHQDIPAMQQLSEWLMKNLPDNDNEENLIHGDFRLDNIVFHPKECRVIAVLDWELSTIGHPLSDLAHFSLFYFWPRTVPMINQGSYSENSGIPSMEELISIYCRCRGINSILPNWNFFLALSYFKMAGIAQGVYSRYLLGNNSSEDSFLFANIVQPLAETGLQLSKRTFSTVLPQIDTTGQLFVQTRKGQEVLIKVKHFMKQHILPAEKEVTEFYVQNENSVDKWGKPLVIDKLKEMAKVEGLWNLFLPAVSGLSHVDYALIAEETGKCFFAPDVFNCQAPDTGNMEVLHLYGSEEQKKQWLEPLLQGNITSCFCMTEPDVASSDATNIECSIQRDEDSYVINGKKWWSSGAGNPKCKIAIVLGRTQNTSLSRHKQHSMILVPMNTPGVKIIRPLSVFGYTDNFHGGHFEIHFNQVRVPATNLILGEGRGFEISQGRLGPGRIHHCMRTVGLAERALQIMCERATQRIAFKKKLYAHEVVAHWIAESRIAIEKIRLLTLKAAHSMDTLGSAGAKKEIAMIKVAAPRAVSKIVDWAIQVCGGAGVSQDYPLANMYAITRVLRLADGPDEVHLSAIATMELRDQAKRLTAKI

ABL2 = molecular target: T4, ABL2 (Homo sapiens, UniProt P42684); experiment: Kinobeads two-dose competition binding: ABL2; conditions: sheet CATDS matrix 2; Gene Name ABL2
T4 construct: endogenous in cells

[1] = sheet "Kinobeads Drugmatrix - all", unit inferred, same values below 1000 recur in sheet "nanomolar"

Sequence of ABL1 (P00519 28-1130 limits assumed): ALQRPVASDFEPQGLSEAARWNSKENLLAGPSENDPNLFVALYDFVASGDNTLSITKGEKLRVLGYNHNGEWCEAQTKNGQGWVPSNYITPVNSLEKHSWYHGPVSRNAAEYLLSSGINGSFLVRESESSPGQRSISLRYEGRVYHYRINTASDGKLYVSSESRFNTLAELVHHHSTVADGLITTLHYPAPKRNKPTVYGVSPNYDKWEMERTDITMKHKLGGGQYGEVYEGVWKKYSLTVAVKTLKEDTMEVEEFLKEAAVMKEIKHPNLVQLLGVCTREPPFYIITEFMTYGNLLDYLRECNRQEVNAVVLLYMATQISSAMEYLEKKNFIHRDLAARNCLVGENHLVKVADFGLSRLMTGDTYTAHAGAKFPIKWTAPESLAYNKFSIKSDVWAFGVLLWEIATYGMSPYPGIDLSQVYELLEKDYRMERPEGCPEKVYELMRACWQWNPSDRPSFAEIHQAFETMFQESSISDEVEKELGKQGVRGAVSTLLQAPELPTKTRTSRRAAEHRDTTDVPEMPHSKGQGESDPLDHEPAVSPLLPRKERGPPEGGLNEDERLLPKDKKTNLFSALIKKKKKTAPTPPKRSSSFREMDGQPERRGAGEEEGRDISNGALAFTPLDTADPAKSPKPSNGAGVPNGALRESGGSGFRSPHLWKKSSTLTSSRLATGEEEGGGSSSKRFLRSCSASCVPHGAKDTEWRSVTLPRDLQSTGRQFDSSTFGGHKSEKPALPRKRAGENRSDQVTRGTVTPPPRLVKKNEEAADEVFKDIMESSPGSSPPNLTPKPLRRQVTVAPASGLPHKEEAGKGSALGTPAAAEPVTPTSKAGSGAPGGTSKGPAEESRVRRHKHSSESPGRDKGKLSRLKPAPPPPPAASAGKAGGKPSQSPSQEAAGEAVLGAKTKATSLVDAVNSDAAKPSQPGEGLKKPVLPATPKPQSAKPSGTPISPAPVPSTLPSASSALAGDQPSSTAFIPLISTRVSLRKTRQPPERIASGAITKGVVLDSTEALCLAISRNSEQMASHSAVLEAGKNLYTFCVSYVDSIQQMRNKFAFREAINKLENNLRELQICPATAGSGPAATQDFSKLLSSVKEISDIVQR
T4 sequence (P42684 whole entry): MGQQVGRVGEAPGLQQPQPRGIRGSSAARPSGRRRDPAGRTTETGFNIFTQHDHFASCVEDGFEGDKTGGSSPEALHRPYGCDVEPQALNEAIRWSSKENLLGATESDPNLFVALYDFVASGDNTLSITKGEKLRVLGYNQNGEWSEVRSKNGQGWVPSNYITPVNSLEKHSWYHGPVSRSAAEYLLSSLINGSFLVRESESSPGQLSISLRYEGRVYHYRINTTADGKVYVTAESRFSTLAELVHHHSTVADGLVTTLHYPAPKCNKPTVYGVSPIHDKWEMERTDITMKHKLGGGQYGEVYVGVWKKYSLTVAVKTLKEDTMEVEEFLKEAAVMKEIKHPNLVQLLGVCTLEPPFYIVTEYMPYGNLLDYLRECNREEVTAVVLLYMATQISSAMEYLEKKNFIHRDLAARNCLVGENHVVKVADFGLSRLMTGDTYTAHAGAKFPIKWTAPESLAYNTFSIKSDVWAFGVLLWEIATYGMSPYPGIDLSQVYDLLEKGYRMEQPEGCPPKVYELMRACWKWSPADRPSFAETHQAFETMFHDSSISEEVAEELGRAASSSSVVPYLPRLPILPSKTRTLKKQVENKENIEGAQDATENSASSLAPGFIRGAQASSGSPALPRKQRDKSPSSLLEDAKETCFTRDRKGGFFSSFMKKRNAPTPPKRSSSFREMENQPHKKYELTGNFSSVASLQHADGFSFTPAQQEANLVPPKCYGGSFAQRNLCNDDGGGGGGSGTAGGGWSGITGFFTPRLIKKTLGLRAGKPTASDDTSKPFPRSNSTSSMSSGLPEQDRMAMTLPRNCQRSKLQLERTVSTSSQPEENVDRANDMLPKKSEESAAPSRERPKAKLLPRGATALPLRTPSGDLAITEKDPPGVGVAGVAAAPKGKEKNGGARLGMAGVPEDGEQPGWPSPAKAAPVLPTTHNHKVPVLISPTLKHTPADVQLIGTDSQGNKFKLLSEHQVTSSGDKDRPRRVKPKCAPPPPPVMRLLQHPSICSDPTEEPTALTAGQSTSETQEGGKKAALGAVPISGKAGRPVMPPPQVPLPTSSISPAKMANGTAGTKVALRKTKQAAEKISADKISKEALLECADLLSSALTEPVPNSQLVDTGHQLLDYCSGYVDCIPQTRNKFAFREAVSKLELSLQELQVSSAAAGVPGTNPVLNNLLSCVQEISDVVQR
T2 sequence (Q2M2I8 whole entry): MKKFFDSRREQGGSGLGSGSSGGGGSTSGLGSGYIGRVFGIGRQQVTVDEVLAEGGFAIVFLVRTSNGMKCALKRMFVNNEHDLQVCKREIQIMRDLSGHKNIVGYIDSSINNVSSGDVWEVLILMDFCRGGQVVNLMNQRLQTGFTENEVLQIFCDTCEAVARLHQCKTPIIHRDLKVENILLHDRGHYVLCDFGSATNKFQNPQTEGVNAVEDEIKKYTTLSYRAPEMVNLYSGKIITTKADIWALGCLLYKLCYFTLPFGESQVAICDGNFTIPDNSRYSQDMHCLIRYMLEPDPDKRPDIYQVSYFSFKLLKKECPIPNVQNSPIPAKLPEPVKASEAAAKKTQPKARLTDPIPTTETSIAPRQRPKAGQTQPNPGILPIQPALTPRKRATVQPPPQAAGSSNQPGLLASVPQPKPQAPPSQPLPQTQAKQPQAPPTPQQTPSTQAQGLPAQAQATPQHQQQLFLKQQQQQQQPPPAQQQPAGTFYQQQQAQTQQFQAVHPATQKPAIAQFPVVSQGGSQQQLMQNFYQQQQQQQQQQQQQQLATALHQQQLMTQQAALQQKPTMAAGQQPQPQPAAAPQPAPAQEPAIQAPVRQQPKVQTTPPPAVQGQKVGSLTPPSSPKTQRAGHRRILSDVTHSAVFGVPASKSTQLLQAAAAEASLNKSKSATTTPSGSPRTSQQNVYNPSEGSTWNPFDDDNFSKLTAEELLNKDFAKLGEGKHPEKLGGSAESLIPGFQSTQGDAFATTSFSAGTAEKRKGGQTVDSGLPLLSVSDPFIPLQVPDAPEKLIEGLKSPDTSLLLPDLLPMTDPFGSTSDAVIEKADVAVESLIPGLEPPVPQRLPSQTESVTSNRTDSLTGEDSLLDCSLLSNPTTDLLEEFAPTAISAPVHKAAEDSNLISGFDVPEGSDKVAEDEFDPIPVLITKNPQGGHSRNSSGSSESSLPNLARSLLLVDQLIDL

CATDS (ABL1) | CATDS (ACOX1) | CATDS (AAK1) | CATDS (ACAD11) | CATDS (ABL2) | potency estimated from few doses (AAK1; [1]) | SMILES | potency estimated from few doses (AAK1)
0 | 0 | 0 | 0 | 0 |  | COc1cc(N2CCN(C(C)C)CC2)ccc1Nc1nc(Nc2cccc(F)c2C(=O)O)c2cc[nH]c2n1 [GSK1819799A] | 
0 | 0 | 0 | 0 | 0 |  | CNC(=O)c1c(F)cccc1Nc1nc(Nc2cc3c(cc2OC)CCN3C(=O)CN(C)C)nc2[nH]ccc12 [GSK1838705] | 
0 | 0 | 0 | 0 | 0 |  | Cc1ccc(NC(=O)c2cccc(N3CCCCC3)c2)cc1-c1ccc(C(=O)NCC2CC2)cc1 [GSK1917008A] | 
0 | 0 | 0 | 0 | 0 |  | COc1cc2c(cc1Nc1nc(Nc3ccsc3C(N)=O)c3cc[nH]c3n1)N(C(=O)CN(C)C)CCC2 [GSK2110236A] | 
0 | 0 | 0 | 0 | 0 |  | COc1cc2c(cc1Nc1nc(Nc3ccsc3C(N)=O)c3cc[nH]c3n1)N(C(=O)CN(C)C)CCC2(C)C [GSK2163632A] | 
0 | 0 | 0 | 0 | 0 |  | COc1cc2c(cc1Nc1nc(N3CCc4ccccc43)c3cc[nH]c3n1)N(C(=O)CN(C)C)CC2 [GSK2186269A] | 
0 | 0 | 0.118 | 0 | 0 | 108 nM | CNc1nccc(-c2ccc3c(N)n[nH]c3c2)n1 [GSK2206003A] | 
0 | 0 | 0 | 0 | 0 |  | COc1cc(C)c(NC(=O)CN(C)C)cc1Nc1nc(Nc2cccc(F)c2C(N)=O)c2cc[nH]c2n1 [GSK2213727A] | 
0 | 0 | 0 | 0 | 0 |  | CNC(=O)c1ncccc1Nc1nc(Nc2cc3c(cc2OC)CCCN3C(=O)CN(C)C)nc2[nH]ccc12 [GSK2220400A] | 
0 | 0 | 0.2807 | 0 | 0 | 149 nM | CC(C)Nc1cc(-c2ccc3c(N)n[nH]c3c2)nc(N)n1 [GSK2221681A] | 
0 | 0 | 0.04187 | 0 | 0 |  | CNc1cc(-c2ccc3c(N)n[nH]c3c2)nc(N)n1 [GSK2224810A] | 
0 | 0 | 0.2514 | 0 | 0 |  | Nc1nc(Nc2ccccc2)cc(-c2ccc3c(N)n[nH]c3c2)n1 [GSK2225749A] | 
0 | 0 | 0.1964 | 0 | 0 |  | Nc1nc(-c2ccc3c(N)n[nH]c3c2)cc(N2CCCCC2)n1 [GSK2228768A] | 
0 | 0 | 0.3935 | 0 | 0 |  | CC(C)c1cc(-c2ccc3c(N)n[nH]c3c2)nc(N)n1 [GSK2250882A] | 
0 | 0 | 0 | 0 | 0 |  | C[C@@H]1CCCCN1c1cc(-c2ccc3c(N)n[nH]c3c2)nc(N)n1 [GSK2258759A] | 
0 | 0 | 0 | 0 | 0 |  | CC(C)N1CCN(Cc2cnc(-c3cc(-c4cccc5[nH]ccc45)cc4[nH]ncc34)o2)CC1 [GSK2269557] | 
0 | 0 | 0 | 0 | 0 |  | Cc1ccccc1Cn1ccn2c(=O)cc(N3CCOCC3)nc12 [GSK2269905A] | 
0 | 0 | 0 | 0 | 0 |  | O=c1[nH]cc(-c2ccc(N3CCOCC3)cc2)c2sc(-c3cn[nH]c3)cc12 [GSK2276055A] | 
0 | 0 | 0 | 0 | 0 |  | C[C@H]1CC[C@@H](C(=O)Nc2ccccc2)CN1c1cc(-c2ccc3c(N)n[nH]c3c2)nc(N)n1 [GSK2283293_KCGS] | 
0 | 0 | 0 | 0 | 0 |  | CC(C)(C)OC(=O)NC1CCCN(c2cc(-c3ccc4c(N)n[nH]c4c3)nc(N)n2)C1 (stereo not drawn) [GSK2286096A] | 
0 | 0 | 0.05355 | 0 | 0 |  | Nc1nc(-c2ccc3c(N)n[nH]c3c2)cc(N2CCCC(NC(=O)c3ccccc3)C2)n1 (stereo not drawn) [GSK2286775B] | 
0 | 0 | 0 | 0 | 0 |  | Cc1c(Cn2ccn3c(=O)cc(N4CCOCC4)nc23)cccc1C(F)(F)F [GSK2289044B] | 
0 | 0 | 0 | 0 | 0 |  | COc1ncc(-c2cc(-c3ncc(CN4C[C@@H](C)O[C@@H](C)C4)o3)c3cn[nH]c3c2)cc1NS(C)(=O)=O [GSK2292767] | 
0 | 0 | 0 | 0 | 0 |  | O=c1cc(N2CCOCC2)nc2n(Cc3cccc(Cl)c3)ccn12 [GSK2296823A] | 
0 | 0 | 0 | 0 | 0 |  | O=c1cc(N2CCOCC2)nc2n(Cc3ccc(F)c(Cl)c3)ccn12 [GSK2297099A] | 
0 | 0 | 0 | 0 | 0 |  | O=c1cc(N2CCOCC2)nc2n(Cc3ccccc3F)ccn12 [GSK2297428A] | 
0 | 0 | 0 | 0 | 0 |  | O=c1cc(N2CCOCC2)nc2n(Cc3cccc(F)c3)ccn12 [GSK2297430A] | 

SMILES | CATDS (ABL1) | CATDS (ACOX1) | CATDS (AAK1) | CATDS (ACAD11) | CATDS (ABL2) | potency estimated from few doses (AAK1; [1]) | potency estimated from few doses (AAK1)
N#Cc1ccc(CCNc2nccc(-c3cccc(CN4CCNCC4)c3)n2)cc1 [GSK2137462A] | 0 | 0 | 0 | 0 | 0 |  | 
O=c1[nH]ccc2nc(N[C@@H]3CCNC3)nc(Nc3cc(Cl)cc(Cl)c3)c12 [GSK2188764A] | 0 | 0 | 0.04842 | 0 | 0 |  | 114 nM
Cc1cccc(Nc2nc(N[C@H]3CCNC3)ncc2C(N)=O)c1 [GSK2197149A] | 0 | 0 | 0.1293 | 0 | 0 |  | 64.6 nM
O=c1cc(N2CCOCC2)nc2n(Cc3cccc(Cl)c3Cl)ccn12 [GSK2286295A] | 0 | 0 | 0 | 0 | 0 |  | 
